{"source": "patent US20140357512A1", "about": "“HISTONE DEACETYLASE (HDAC) BIOMARKERS IN MULTIPLE MYELOMA” (priority 2013, published 2014)", "tested_on": "human myeloma cell line MM.1S", "assay": "SILAC acetylated-lysine peptide profiling, HDAC inhibitor vs DMSO (light/heavy ratio)", "assay_type": "cell-based", "text": "An embodiment of the invention comprises utilizing the SILAC method in order to quantitate changes in protein expression between two or more populations of cells. The SILAC method is a technique based on mass spectrometry that detects differences in protein abundance among samples using non-radioactive isotopic labeling. The SILAC method is known in the art, and described in detail in Ong et al., “Stable Isotope Labeling by Amino Acids in Cell Culture, SILAC, as a Simple and Accurate Approach to Expression Proteomics”, Molecular & Cellular Proteomics, vol. 1, pp. 376-386 (2002), which is incorporated herein by reference in its entirety.\nBriefly, the SILAC method involves growing two populations of cells in cell culture. The first population of cells is grown in growth media containing normal amino acids (“normal media”). The second population of cells is grown in media lacking a standard essential amino acid (such as lysine), but is then supplemented with a non-radioactive, isotopically labeled form of that essential amino acid (such as lysine labeled with ^13C atoms, rather than normal ^12C atoms), which is called “heavy media”. When the two populations of cells are each growing in the medium, they incorporate the amino acids into all of their proteins. The growth of cells maintained in the heavy media is no different from that in normal media. All peptides containing the heavy amino acids are heavier than their normal counterparts. The cells from each of the two populations of cells are lysed. The lysates from each of the two cell populations are then combined. The combined cell lysates are then analyzed by mass spectrometry. Pairs of chemically identical peptides of different stable isotope composition can be differentiated in a mass spectrometer due to their difference in mass. The ratio of peak intensities in the mass spectrum for such peptide pairs reflects the abundance ratio for the two proteins.\nThis example describes SILAC studies that were performed to compare the effects of three different HDAC inhibitors (Compound A, Compound B, and tubastatin A) to a control on a human multiple myeloma cell line. The HDAC inhibitors were also compared amongst themselves to determine differences in their effects.\nA human myeloma cell line MM.1S was grown using either ^12C (light) or ^13C (heavy) lysine containing culture medium. The “heavy” cells were treated with DMSO as the control, and the “light” cells were treated with a single HDAC inhibitor at 37° C. for 6 hours. The heavy and light cells were lysed, and the lysates were mixed in 1:1 ratio and digested with the protease trypsin. The acetylated lysine containing peptides (due to the action of the HDAC inhibitor) in the digested peptide pool were captured by a non-specific anti-acetylated lysine antibody cocktail (the antibodies identify both light and heavy acetylated peptides), and subjected to mass spectrometry analysis in order to identify thousands of individual peptides.\nThousands of peptides were identified in pairs (^12C and ^13C) due to their known mass differences. The amino acid sequence and quantitative ratio (Light/Heavy) of a given peptide in two differentially treated cell lysates were then determined and annotated with their possible protein (gene) sources.\nAs stated above, three HDAC inhibitors (Compound A, Compound B, and Tubastatin A) were used. Thus, the SILAC method was performed three times, with a different HDAC inhibitor compared to a control each time. Accordingly, there are three pairs of quantitative data in the table below, i.e., Compound A:DMSO, Compound B:DMSO, and Tubastatin A:DMSO. A cut-off of 1.30 fold of change (increase or decrease) was then used to determine “changed” or “+” in the table, and any peptides with a fold of change less than 1.3 fold were determined to be “unchanged” or “0” in the table. Those peptides that were not identified were marked as “NA” in the table. […]", "data": [{"smiles": "CN1CCc2c(c3ccccc3n2Cc2ccc(C(=O)NO)cc2)C1", "note": "[Tub A]", "values": [{"measurement": "light to heavy ratio (L/H ratio) of acetylated peptide, log 2 scale", "setting": "NIDPK(ac)PCTPR (SEQ ID NO: 148), Isoform 1 of DAZ-associated protein 1 [83], DAZAP1", "result": 0.80}, {"measurement": "L/H ratio of acetylated peptide", "setting": "NK(ac)WFFQK (SEQ ID NO: 498), 60S ribosomal protein L27 [128], RPL27", "result": 0.00, "unit": "log 2"}, {"measurement": "light to heavy ratio (L/H ratio) of acetylated peptide, log 2 scale", "setting": "NKEEAAEYAK(ac)LLAK (SEQ ID NO: 214), 40S ribosomal protein S6 [211], RPS6", "result": 0.53}, {"measurement": "light to heavy ratio (L/H ratio) of acetylated peptide, log 2 scale", "setting": "NLDK(ac)EYLPIGGLAEFCK (SEQ ID NO: 159), Aspartate aminotransferase mitochondrial [94], GOT2", "result": "−0.46"}, {"measurement": "L/H ratio of acetylated peptide ADKDYHFK(ac)VDNDENEHQLSLR (SEQ ID NO: 61)", "setting": "NPM1 [32], log 2 scale, drug vs DMSO", "result": "−0.64"}, {"measurement": "L/H ratio of acetylated peptide FINYVK(ac)NCFR (SEQ ID NO: 62)", "setting": "NPM1 [244], log 2 scale, drug vs DMSO", "result": "−0.52"}, {"measurement": "light to heavy ratio (L/H ratio) of acetylated peptide, log 2 scale", "setting": "NTILK(ac)AYDGR (SEQ ID NO: 177), Isocitrate dehydrogenase [NADP] mitochondrial [256], IDH2", "result": "−0.49"}, {"measurement": "L/H ratio of acetylated peptide GVTQFGNK(ac)YIQQTKPLTLER (SEQ ID NO: 18)", "setting": "NUDT21 [23], log 2 scale, drug vs DMSO", "result": 0.50}, {"measurement": "light to heavy ratio (L/H ratio) of acetylated peptide, log 2 scale", "setting": "NVESYTK(ac)LGNPTR (SEQ ID NO: 210), Dolichyl-diphosphooligosaccharide--protein glycosyltransferase subunit 1 precursor [226], RPN1", "result": "−0.88"}, {"measurement": "light to heavy ratio (L/H ratio) of acetylated peptide, log 2 scale", "setting": "NVTLPAVFK(ac)APIRPDIVNFVHTNLR (SEQ ID NO: 205), 60S ribosomal protein L4 [29], RPL4", "result": "−0.48"}, {"measurement": "L/H ratio of acetylated peptide", "setting": "NVYK(ac)FELDTSER (SEQ ID NO: 444), Dolichyl-diphosphooligosaccharide--protein glycosyltransferase subunit 2 [460], RPN2", "result": 0.00, "unit": "log 2"}, {"measurement": "light to heavy ratio (L/H ratio) of acetylated peptide, log 2 scale", "setting": "NYEHLFK(ac)VNDK (SEQ ID NO: 192), Mitochondrial import inner membrane translocase subunit TIM16 [82], PAM16", "result": 1.00}, {"measurement": "light to heavy ratio (L/H ratio) of acetylated peptide FCLSK(ac)PGVYK (SEQ ID NO: 345)", "setting": "Nodal modulator 1 [630], NOMO3, NOMO1, drug:DMSO", "result": 0.00, "unit": "log 2"}, {"measurement": "L/H ratio of acetylated peptide SGVGNVFIK(ac)NLDK (SEQ ID NO: 63)", "setting": "PABPC4 [104], log 2 scale, drug vs DMSO", "result": "−0.54"}, {"measurement": "L/H ratio of acetylated peptide YGVSGYPTLK(ac)IFR (SEQ ID NO: 66)", "setting": "PDIA3 [104], log 2 scale, drug vs DMSO", "result": "−0.60"}, {"measurement": "L/H ratio of acetylated peptide PSHLTNK(ac)FEDK (SEQ ID NO: 65)", "setting": "PDIA3 [214], log 2 scale, drug vs DMSO", "result": "−0.63"}, {"measurement": "L/H ratio of acetylated peptide GEK(ac)FVMQEEFSR (SEQ ID NO: 64)", "setting": "PDIA3 [335], log 2 scale, drug vs DMSO", "result": "−0.58"}, {"measurement": "light to heavy ratio (L/H ratio) of acetylated peptide, log 2 scale", "setting": "PGGPALWGDAFK(ac)R (SEQ ID NO: 189), Protein NipSnap homolog 3A [166], NIPSNAP3A", "result": 0.77}, {"measurement": "L/H ratio of acetylated peptide SLLGK(ac)DVLFLK (SEQ ID NO: 67)", "setting": "PGK1 [91], log 2 scale, drug vs DMSO", "result": 0.38}, {"measurement": "L/H ratio of acetylated peptide SIYGEK(ac)FEDENFILK (SEQ ID NO: 68)", "setting": "PPIA [82], log 2 scale, drug vs DMSO", "result": "−0.67"}, {"measurement": "L/H ratio of acetylated peptide VIFGLFGK(ac)TVPK (SEQ ID NO: 70)", "setting": "PPIB [67], log 2 scale, drug vs DMSO", "result": "−0.44"}, {"measurement": "L/H ratio of acetylated peptide TVPK(ac)TVDNFVALATGEK (SEQ ID NO: 69)", "setting": "PPIB [71], log 2 scale, drug vs DMSO", "result": "−0.49"}, {"measurement": "L/H ratio of acetylated peptide VIK(ac)[…] (SEQ ID NO: 71)", "setting": "PPIB [98], log 2 scale, drug vs DMSO", "result": "−0.40"}, {"measurement": "L/H ratio of acetylated peptide IYGFYDECK(ac)R (SEQ ID NO: 72)", "setting": "PPP1CC [141], log 2 scale, drug vs DMSO", "result": "−0.43"}, {"measurement": "light to heavy ratio (L/H ratio) of acetylated peptide TAWLDGK(ac)HVVFGK (SEQ ID NO: 592)", "setting": "Peptidyl-prolyl cis-trans isomerase B [165], gene PPIB, inhibitor:DMSO", "result": 0.00, "unit": "log 2"}, {"measurement": "light to heavy ratio (L/H ratio) of acetylated peptide FPDENFK(ac)LK (SEQ ID NO: 347)", "setting": "Peptidyl-prolyl cis-trans isomerase C [123], PPIC, drug:DMSO", "result": 0.00, "unit": "log 2"}, {"measurement": "light to heavy ratio (L/H ratio) of acetylated peptide (ac)AAK(ac)VFESIGK (SEQ ID NO: 277)", "setting": "Prohibitin [4], PHB, drug:DMSO", "result": 0.39, "unit": "log 2"}, {"measurement": "light to heavy ratio (L/H ratio) of acetylated peptide FVVEK(ac)AEQQK (SEQ ID NO: 263)", "setting": "Prohibitin [202], PHB, drug:DMSO", "result": 0.62, "unit": "log 2"}, {"measurement": "light to heavy ratio (L/H ratio) of acetylated peptide GYPTIK(ac)FFR (SEQ ID NO: 541)", "setting": "Protein disulfide-isomerase [103], gene P4HB, inhibitor:DMSO", "result": 0.00, "unit": "log 2"}, {"measurement": "light to heavy ratio (L/H ratio) of acetylated peptide THILLFLPK(ac)SVSDYDGK (SEQ ID NO: 297)", "setting": "Protein disulfide-isomerase [263], P4HB, drug:DMSO", "result": "−0.45", "unit": "log 2"}, {"measurement": "light to heavy ratio (L/H ratio) of acetylated peptide SGLLDK(ac)WK (SEQ ID NO: 602)", "setting": "Signal peptidase complex subunit 2 [38], gene LOC653566, SPCS2, inhibitor:DMSO", "result": 0.00, "unit": "log 2"}, {"measurement": "light to heavy ratio (L/H ratio) of acetylated peptide (ac)AEYLASIFGTEK(ac)DK (SEQ ID NO: 283)", "setting": "Splicing factor U2AF 35 kDa subunit [13], U2AF1, drug:DMSO", "result": 0.60, "unit": "log 2"}, {"measurement": "light to heavy ratio (L/H ratio) of acetylated peptide YDDPEVQK(ac)DIK (SEQ ID NO: 578)", "setting": "Stress-70 protein mitochondrial [135], gene HSPA9, inhibitor:DMSO", "result": 0.00, "unit": "log 2"}, {"measurement": "light to heavy ratio (L/H ratio) of acetylated peptide, log 2 scale", "setting": "TAMK(ac)YNLGLDLR (SEQ ID NO: 158), Glutamate dehydrogenase 1 mitochondrial [527], GLUD1", "result": 0.48}, {"measurement": "light to heavy ratio (L/H ratio) of acetylated peptide, log 2 scale", "setting": "TLNDELEIIEGMK(ac)FDR (SEQ ID NO: 175), 60 kDa heat shock protein mitochondrial [218], HSPD1", "result": "−0.45"}, {"measurement": "light to heavy ratio (L/H ratio) of acetylated peptide, log 2 scale", "setting": "TPELNLDQFHDK(ac)TPYTIMFGPDK (SEQ ID NO: 139), cDNA FLJ55574 highly similar to Calnexin [217], CANX", "result": "−0.48"}, {"measurement": "light to heavy ratio (L/H ratio) of acetylated peptide, log 2 scale", "setting": "TPVIVTLK(ac)ENER (SEQ ID NO: 176), Hypoxia up-regulated protein 1 [75], HYOU1", "result": "−0.54"}, {"measurement": "L/H ratio of acetylated peptide INVYYNEATGGK(ac)YVPR (SEQ ID NO: 109)", "setting": "TUBB2C [58], log 2 scale, drug vs DMSO", "result": "−0.43"}, {"measurement": "L/H ratio of acetylated peptide ILAEGGGAK(ac)FK (SEQ ID NO: 110)", "setting": "TUFM [91], log 2 scale, drug vs DMSO", "result": "−0.61"}, {"measurement": "L/H ratio of acetylated peptide QIESK(ac)TAFQEALDAAGDK (SEQ ID NO: 111)", "setting": "TXN [8], log 2 scale, drug vs DMSO", "result": "−0.70"}, {"measurement": "L/H ratio of acetylated peptide VYVAK(ac)VDCTAHSDVCSAQGVR (SEQ ID NO: 113)", "setting": "TXNDC5, MUTED, MUTED-TXNDC5 [118], log 2 scale, drug vs DMSO", "result": "−0.49"}, {"measurement": "L/H ratio of acetylated peptide LFKPGQEAVK(ac)YQGPR (SEQ ID NO: 112)", "setting": "TXNDC5, MUTED, MUTED-TXNDC5 [150], log 2 scale, drug vs DMSO", "result": "−0.47"}, {"measurement": "light to heavy ratio (L/H ratio) of acetylated peptide, log 2 scale", "setting": "TYGEIFEK(ac)FHPIR (SEQ ID NO: 188), NADH dehydrogenase [ubiquinone] 1 subunit C2 [114], NDUFC2", "result": 1.00}, {"measurement": "light to heavy ratio (L/H ratio) of acetylated peptide NICSK(ac)YSVR (SEQ ID NO: 256)", "setting": "Thioredoxin domain-containing protein 5 [390], TXNDC5, MUTED, MUTED-TXNDC5, drug:DMSO", "result": "−0.51", "unit": "log 2"}]}]}
